Data reported in US9271448B2, “Method for cultivating sugar cane” (BASF SE, priority 2010, dated 2016).

Tested on: sugar cane seedlings
Test: Growth of sugar cane seedlings treated in the greenhouse, then transplanted to the field
Type: in vivo
Description: On an area of 0.1 hectares where sugar cane plants were growing with a distance between the rows of approximately 1.5 m, the top part of the 8 months old sugar cane plants was removed by chopping off with a machete in a height of approximately 2-2.5 m. The removed top part was discarded. After 30 days, on the below, remaining stalks, shoots (“1st generation”) had developed from the buds. The top parts (approximately 30 cm) of these shoots were removed by cutting. New shoots (“2nd generation”) developed from the cut shoots of the 1st generation. 30 days after cutting the top part of the 1st generation shoots, the 2nd generation shoots were removed by cutting them off closely to the nodes. On average, every node had produced three 2nd generation shoots. The removed 2nd generation shoots were each placed in pots filled with humid coconut fibers. The pots were placed in a greenhouse, and seedlings were grown from the planted shoots at 25-35° C. and 70-80% humidity. While in the greenhouse, the shoots/seedlings were watered sufficiently. One part of the seedlings was treated once with pyraclostrobin (in form of the commercial product Comet®; EC; 250 g/l) by immersing the entire tray containing the planted shoots for 10 min into a solution containing 4 ml of Comet® concentrate per l; i.e. 1 g pyraclostrobin per l. Another part of the seedlings remained untreated (control). 30 to 45 days after having been placed in the greenhouse, the surviving seedlings were transferred to an acclimatization area and kept for 15 days. Then they were counted and transplanted to a field. In sum 96,000 seedlings had been obtained. This number was sufficient for planting an area of 6.4 hectares with the same distance between the rows and the plants in the rows as in the originating field. […] 20 days after transplanting, the plant height of the treated and untreated plants was determined.

## COC(=O)N(OC)c1ccccc1COc1ccn(-c2ccc(Cl)cc2)n1 [pyraclostrobin]
1 g a.i./l, planted shoots immersed once for 10 min, height determined 20 days after transplanting to the field
  Plant height: 38.3 cm
Treated once while in the greenhouse, 1 g pyraclostrobin per l, compared with untreated seedlings
  colour and vigour of the seedlings / young plants: more intense, greener color and were more vigorous
Versus untreated control, 1 g pyraclostrobin per l, 20 days after transplanting
  increase in plant height: more than 30%
